{"source": "patent US20080280833A1", "about": "“Therapeutic Peptides Derived from Urokinase Plasminogen Activator Receptor” (priority 2005, published 2008)", "key": {"HEK-293 cells": {"tested_on": "HEK-293 cells", "experiment": "Chemotaxis assay, HEK-293 cells", "assay_type": "cell-based, human", "conditions": "for cell migration in the presence of VN: HEK-293, VN 1 μg/ml + peptide 1 pM; for cell migration: HEK-293, peptide alone 1 pM", "procedure": "(§1) Chemotaxis assay was performed as described (Degryse et al., 1999, 2001a, 2001b) with modified Boyden chambers. Filters (5 μm pore size, Neuro Probe, Gaithersburg, Md.) were treated with collagen I (100 μg/ml) and fibronectin (10 μg/ml, Roche).≈40-50,000 cells in serum-free DMEM were added to the upper well and the chemoattractants tested added to the lower well. When present, antibodies, or inhibitors were added in both wells. After overnight migration at 37° C., cells remaining on the upper surface of filters were scraped off and filters were fixed in methanol and stained in a solution of 10% (w/v) crystal violet in 20% (v/v) methanol. The experiments were performed at least twice in triplicate and the results, expressed as fold over control, are the mean ±SD of the number of cells counted in ten high power fields per filter. Random cell migration, i.e. migration in the absence of chemoattractant, was given the arbitrary value of 100%."}, "[1]": {"tested_on": "human smooth muscle cells from the coronary artery (CASMC)", "experiment": "Chemotaxis assay, human coronary artery smooth muscle cells", "assay_type": "cell-based", "procedure": "as §1"}, "uPAR-αvβ3 complexes": {"target": "T1, uPAR-αvβ3 complexes (Homo sapiens, UniProt P05106+P06756)", "T1 construct": "purchased Chemicon (integrins); American Diagnostica (uPA)", "T1 sequence (P06756 31-889 limits assumed)": "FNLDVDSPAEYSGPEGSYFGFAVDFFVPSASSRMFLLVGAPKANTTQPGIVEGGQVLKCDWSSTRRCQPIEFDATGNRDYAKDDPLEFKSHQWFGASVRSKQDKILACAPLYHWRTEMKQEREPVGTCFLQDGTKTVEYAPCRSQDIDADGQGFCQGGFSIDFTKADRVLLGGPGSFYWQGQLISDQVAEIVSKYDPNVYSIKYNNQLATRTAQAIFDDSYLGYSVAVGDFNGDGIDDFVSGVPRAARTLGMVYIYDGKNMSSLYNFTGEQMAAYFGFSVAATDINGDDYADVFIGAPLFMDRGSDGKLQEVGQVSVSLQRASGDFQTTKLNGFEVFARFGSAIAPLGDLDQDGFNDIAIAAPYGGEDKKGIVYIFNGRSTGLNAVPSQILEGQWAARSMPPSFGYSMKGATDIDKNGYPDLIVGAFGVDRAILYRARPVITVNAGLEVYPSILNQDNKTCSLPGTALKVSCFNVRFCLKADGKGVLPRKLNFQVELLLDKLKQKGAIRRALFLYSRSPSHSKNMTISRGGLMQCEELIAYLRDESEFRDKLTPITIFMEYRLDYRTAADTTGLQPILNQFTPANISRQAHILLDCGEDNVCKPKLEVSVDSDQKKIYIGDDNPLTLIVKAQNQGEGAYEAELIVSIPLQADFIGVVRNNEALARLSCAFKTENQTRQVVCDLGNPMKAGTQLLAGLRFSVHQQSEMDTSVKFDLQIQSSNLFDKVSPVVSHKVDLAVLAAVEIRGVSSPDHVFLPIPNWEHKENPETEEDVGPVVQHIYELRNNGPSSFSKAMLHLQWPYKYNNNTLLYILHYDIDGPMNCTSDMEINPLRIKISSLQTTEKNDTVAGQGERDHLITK", "T1 sequence (P06756 891-1048 limits assumed)": "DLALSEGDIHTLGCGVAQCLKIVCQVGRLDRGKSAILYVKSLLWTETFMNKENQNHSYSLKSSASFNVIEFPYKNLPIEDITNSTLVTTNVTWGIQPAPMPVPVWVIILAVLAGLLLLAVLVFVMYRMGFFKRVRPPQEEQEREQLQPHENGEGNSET", "T1 sequence (P05106 27-788)": "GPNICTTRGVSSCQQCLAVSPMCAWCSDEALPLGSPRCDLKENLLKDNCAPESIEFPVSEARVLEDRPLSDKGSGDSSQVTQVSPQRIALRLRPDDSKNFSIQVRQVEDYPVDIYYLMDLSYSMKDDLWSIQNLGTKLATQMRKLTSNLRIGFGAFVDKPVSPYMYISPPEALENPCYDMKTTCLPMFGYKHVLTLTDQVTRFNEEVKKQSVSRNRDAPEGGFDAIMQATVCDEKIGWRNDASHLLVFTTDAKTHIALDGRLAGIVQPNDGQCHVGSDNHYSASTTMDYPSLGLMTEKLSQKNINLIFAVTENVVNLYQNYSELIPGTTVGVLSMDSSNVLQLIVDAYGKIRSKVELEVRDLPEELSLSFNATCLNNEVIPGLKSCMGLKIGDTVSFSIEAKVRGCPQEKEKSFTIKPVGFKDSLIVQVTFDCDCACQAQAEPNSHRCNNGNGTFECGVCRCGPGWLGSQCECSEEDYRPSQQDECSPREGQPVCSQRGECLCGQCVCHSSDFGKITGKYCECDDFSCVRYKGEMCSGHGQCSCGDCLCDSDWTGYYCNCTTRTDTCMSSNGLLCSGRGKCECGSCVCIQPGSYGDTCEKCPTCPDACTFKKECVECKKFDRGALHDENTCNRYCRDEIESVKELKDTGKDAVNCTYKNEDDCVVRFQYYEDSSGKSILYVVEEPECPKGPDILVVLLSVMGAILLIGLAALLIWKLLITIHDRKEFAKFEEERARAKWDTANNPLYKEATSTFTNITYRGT", "experiment": "Pull-down assay, 125I-suPAR with purified αvβ3 integrin", "assay_type": "binding", "procedure": "(§2) Soluble uPAR (suPAR) was radioiodinated (as for VN, see above) at a specific activity of 1.5×10^5 cpm/ng. A mix composed of 2 μg of either purified αvβ3 or α5β1 integrin, and […] of ^125I-suPAR was incubated for 4 hours at 4° C. in the absence (control) or in the presence of 4 μg of uPA with or without 5 μg of either D2A or D2A-Ala peptide in binding buffer, (RPMI plus 0.02% BSA, 10 mM HEPES pH 7.4, total volume 300 μl). Complexes were immunoprecipitated with 3 μg of anti-αvβ3 (LM609) or anti-α5β1 monoclonal antibody, and 60 μl of protein G-agarose beads (Amersham Biosciences), Beads were washed three times in binding buffer, extracted in reducing sample buffer, and proteins were fractionated by SDS-PAGE. Gels were analyzed by autoradiography and densitometry. Results are presented as percentage of relative density units normalized to uPA alone."}, "RSMC": {"tested_on": "RSMC", "experiment": "Immunofluorescence microscopy, actin cytoskeleton and cell morphology", "assay_type": "cell-based, rat", "conditions": "30 minutes at 37° C., peptide 1 pM or VN 1 μg/ml", "procedure": "(§3) As previously described (Degryse et al., 1999; 2004) 15,000-25,000 cells (20-40% confluence), were seeded on glass coverslips in 2 cm^2 well, cultured for 24 hours in DMEM plus 10% FCS, washed with PBS and cultured for another 24 hours without FCS. After stimulation, RSMC were fixed for 20 min at RT with 3% paraformaldehyde, 2% sucrose in PBS pH 7.5, washed 3 times with PBS-BSA 0.2%, permeabilized with 20 mM hepes pH 7.4, 300 mM saccharose, 50 mM NaCl, 3 mM MgCl2, 0.5% (v/v) Triton X-100 for 3 min at 4° C., and washed 3 times with PBS-BSA 0.2%. RSMC were incubated in PBS-BSA 2% for 15 min at 37° C., then with anti-Stat1 primary antibodies for 30 min at 37° C., washed 3 times with PBS-BSA 0.2%, and further incubated with PBS-BSA 2% for 15 min at 37° C. Cells were stained with the secondary TRITC-antibody and with FITC-phalloidin for visualization of filamentous actin, for 30 min at 37° C. DAPI (4′,6-diamidino-2-phenylindole, Roche) was used to label the nucleus. Finally, after 3 washes with PBS-BSA 0.2%, one with distilled water, coverslips were mounted with 20% (w/v) Mowiol. Fluorescence Photographs were taken with a Zeiss Axiophot microscope"}, "[2]": {"tested_on": "human smooth muscle cells from the aorta (AoSMC)", "experiment": "Chemotaxis assay, human aortic smooth muscle cells", "assay_type": "cell-based", "procedure": "as §1"}, "[3]": {"tested_on": "Rat Smooth Muscle Cells and HT1080 Human Fibrosarcoma Cells", "experiment": "Boyden chamber assays, pleiotropic inhibition of chemotaxis", "assay_type": "cell-based", "source_text": "In Boyden chamber assays, D2A-Ala and GAAG inhibit not only VN-dependent and uPA-dependent chemotaxis (as reported above), but also EGF— and UTP-dependent chemotaxis. The effect is dose-dependent. Notice that the EGF-dependent and the UTP-dependent chemotaxis work through receptors (EGF-receptor and P2Y2 receptor, respectively), that are different among themselves and are different from those employed by uPA (uPAR) and VN (αvβ3). We conclude that these two inhibitors are general inhibitors of chemotaxis."}, "[4]": {"tested_on": "rat smooth muscle cells (RSMC)", "experiment": "Chemotaxis assay, rat smooth muscle cells", "assay_type": "cell-based", "procedure": "as §1"}, "[5]": {"tested_on": "human HT1080 fibrosarcoma cells", "experiment": "Matrigel invasion assay", "assay_type": "cell-based", "conditions": "for stimulation of Matrigel invasiveness of HT1080 cells: substance alone, 24 hours at 37° C."}, "Stat1": {"tested_on": "Stat1", "experiment": "Immunofluorescence microscopy, Stat1 distribution", "assay_type": "cell-based, rat", "conditions": "RSMC; for Stat1 activation and translocation into the nucleus: 30 minutes at 37° C., peptide 1 pM or VN 1 μg/ml", "procedure": "as §3\nTo quantify the activation of Stat1, random pictures were taken and nuclei positively stained for Stat1 were counted and expressed in percent."}, "HEK-293-uPAR cells": {"tested_on": "HEK-293-uPAR cells", "experiment": "Chemotaxis assay, HEK-293-uPAR cells", "assay_type": "cell-based, human", "conditions": "HEK-293-uPAR; for cell migration in the presence of VN: VN 1 μg/ml + peptide 1 pM; for cell migration: peptide alone 1 pM", "procedure": "as §1"}, "KG-1 cells": {"tested_on": "KG-1 cells", "experiment": "Chemotaxis assay of non adherent cells, Boyden micro-chamber", "assay_type": "cell-based, human", "procedure": "Chemotaxis assay of non adherent cells was performed as described (Degryse et al., 2001; FEBS lett. 505: 249-254) using modified Boyden micro-chamber with the exception that the filter was not treated. 50,000 cells were added in the top well in serum-free RPMI medium and allowed to migrate for 1 hour at 37° C. The molecules to be tested as chemoattractant were diluted in serum-free RPMI medium and added in the lower well of the Boyden chamber. Experiments were performed in triplicate. Results are the mean ±SD of the number of cells counted in five high power fields. Migration in the absence of chemoattractant is referred to as 100%."}, "LB6-D1HD3 cells": {"tested_on": "LB6-D1HD3 cells", "experiment": "Chemotaxis assay, LB6-D1HD3 cells (uPAR lacking domain 2)", "assay_type": "cell-based, mouse", "procedure": "as §1"}, "uPAR-α5β1 complexes": {"target": "T2, uPAR-α5β1 complexes (Homo sapiens, UniProt P05556+P08648)", "T2 construct": "purchased Chemicon (integrins); American Diagnostica (uPA)", "T2 sequence (P08648 42-894 limits assumed)": "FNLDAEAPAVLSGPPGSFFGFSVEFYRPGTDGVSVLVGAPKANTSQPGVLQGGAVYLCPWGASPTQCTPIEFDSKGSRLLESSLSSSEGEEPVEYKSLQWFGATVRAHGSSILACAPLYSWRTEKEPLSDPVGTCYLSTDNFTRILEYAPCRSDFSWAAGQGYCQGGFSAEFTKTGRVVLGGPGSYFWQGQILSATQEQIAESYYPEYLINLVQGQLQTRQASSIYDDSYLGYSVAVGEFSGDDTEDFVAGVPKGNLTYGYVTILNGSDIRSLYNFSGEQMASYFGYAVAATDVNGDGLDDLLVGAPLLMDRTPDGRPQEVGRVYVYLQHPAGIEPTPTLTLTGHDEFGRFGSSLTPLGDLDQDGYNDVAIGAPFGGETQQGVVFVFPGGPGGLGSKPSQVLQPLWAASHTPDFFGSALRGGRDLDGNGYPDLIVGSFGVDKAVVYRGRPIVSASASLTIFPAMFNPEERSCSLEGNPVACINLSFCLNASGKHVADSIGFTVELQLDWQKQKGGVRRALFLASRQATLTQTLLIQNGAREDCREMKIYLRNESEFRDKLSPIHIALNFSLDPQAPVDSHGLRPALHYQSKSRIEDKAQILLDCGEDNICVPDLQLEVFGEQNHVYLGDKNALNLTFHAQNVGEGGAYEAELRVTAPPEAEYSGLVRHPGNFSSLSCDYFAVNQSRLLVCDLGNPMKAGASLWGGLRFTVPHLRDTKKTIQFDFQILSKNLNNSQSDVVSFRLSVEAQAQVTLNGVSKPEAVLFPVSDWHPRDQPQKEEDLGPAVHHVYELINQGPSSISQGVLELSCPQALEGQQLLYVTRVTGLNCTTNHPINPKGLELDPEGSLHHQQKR", "T2 sequence (P08648 895-1049 limits assumed)": "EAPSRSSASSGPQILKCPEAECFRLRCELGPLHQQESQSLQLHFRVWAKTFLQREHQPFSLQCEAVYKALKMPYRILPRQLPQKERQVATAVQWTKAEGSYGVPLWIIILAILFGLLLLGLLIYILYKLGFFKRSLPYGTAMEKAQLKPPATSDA", "T2 sequence (P05556 21-798)": "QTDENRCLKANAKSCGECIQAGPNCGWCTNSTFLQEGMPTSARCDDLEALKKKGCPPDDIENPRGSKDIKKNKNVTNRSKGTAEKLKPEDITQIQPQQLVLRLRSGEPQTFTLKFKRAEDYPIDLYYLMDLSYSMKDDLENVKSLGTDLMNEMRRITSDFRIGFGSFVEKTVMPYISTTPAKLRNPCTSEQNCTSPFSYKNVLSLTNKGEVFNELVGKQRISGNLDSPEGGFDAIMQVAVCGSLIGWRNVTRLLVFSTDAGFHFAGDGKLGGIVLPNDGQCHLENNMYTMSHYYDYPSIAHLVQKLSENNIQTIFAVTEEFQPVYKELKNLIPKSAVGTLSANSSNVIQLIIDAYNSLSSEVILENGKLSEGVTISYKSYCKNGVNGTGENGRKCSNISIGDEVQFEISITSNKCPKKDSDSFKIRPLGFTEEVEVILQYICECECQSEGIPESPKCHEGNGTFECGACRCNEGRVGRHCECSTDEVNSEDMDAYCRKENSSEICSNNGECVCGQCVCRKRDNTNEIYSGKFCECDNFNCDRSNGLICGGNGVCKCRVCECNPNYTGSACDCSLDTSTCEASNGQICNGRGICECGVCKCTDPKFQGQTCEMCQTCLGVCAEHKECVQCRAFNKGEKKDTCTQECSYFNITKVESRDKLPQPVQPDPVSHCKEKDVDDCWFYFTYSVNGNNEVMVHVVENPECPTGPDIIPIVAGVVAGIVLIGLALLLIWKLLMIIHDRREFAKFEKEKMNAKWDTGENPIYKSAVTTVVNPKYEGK", "experiment": "Pull-down assay, 125I-suPAR with purified α5β1 integrin", "assay_type": "binding", "conditions": "in the presence of uPA", "procedure": "as §2"}, "[6]": {"conditions": "HT1080, at about the same concentration (around 1 pM)"}}}
{"sequence": "IQEGAAGRPKDDR [D2A-Ala, D2A with two glutamic acids changed into two alanines]", "values": [{"measurement": "cell migration in the presence of VN", "setting": "HEK-293 cells", "value": "94.50 ± 19.58 % of control"}, {"measurement": "cell migration", "setting": "HEK-293 cells", "value": "110.19 ± 26.63 % of control"}, {"measurement": "inhibition of VN-induced migration", "setting": "[1]", "value": "totally inhibited"}, {"measurement": "effect on uPAR-αvβ3 co-immunoprecipitation", "setting": "uPAR-αvβ3 complexes; in the presence of uPA", "value": "prevented"}, {"measurement": "cell morphology and actin cytoskeleton organization", "setting": "RSMC", "value": "did not promote the change of morphology and reorganization of actin cytoskeleton"}, {"measurement": "inhibition of VN-induced migration", "setting": "[2]", "value": "totally inhibited"}, {"measurement": "inhibition of VN-dependent chemotaxis", "setting": "[3]", "value": "inhibit"}, {"measurement": "inhibition of uPA-dependent chemotaxis", "setting": "[3]", "value": "inhibit"}, {"measurement": "inhibition of EGF-dependent chemotaxis", "setting": "[3]; dose-dependent", "value": "inhibit"}, {"measurement": "inhibition of UTP-dependent chemotaxis", "setting": "[3]; dose-dependent", "value": "inhibit"}, {"measurement": "inhibition of FN-induced migration", "setting": "[4]; RSMC", "value": "inhibited"}, {"measurement": "inhibition of LN-induced migration", "setting": "[4]; RSMC", "value": "inhibited"}, {"measurement": "stimulation of RSMC migration (chemotactic activity)", "setting": "[4]; RSMC", "value": "failed to stimulate cell migration"}, {"measurement": "inhibition of VN-induced RSMC migration", "setting": "[4]; RSMC, attractant VN", "value": "completely abrogated"}, {"measurement": "concentration at which an effect on VN-induced cell migration is already visible", "setting": "[4]; VN-stimulated RSMC", "value": 10, "unit": "fM"}, {"measurement": "concentration giving complete inhibition of VN-induced cell migration", "setting": "[4]; VN-stimulated RSMC", "value": 1, "unit": "pM"}, {"measurement": "inhibition of EGF-dependent invasion", "setting": "[5]; HT1080, 100 pM", "value": "inhibit"}, {"measurement": "inhibition of insulin-dependent invasion", "setting": "[5]; HT1080, 100 pM", "value": "inhibit"}, {"measurement": "inhibition of VN-induced invasiveness", "setting": "[5]; [6]", "value": "inhibit"}, {"measurement": "inhibition of uPA-induced invasiveness", "setting": "[5]; [6]", "value": "inhibit"}, {"measurement": "inhibition of FN-induced invasion", "setting": "[5]; HT1080, at the same concentration", "value": "inhibit"}, {"measurement": "stimulation of Matrigel invasiveness of HT1080 cells", "setting": "[5]", "value": "have no effects"}, {"measurement": "Stat1 activation and translocation into the nucleus", "setting": "Stat1", "value": "failed to activate Stat1"}, {"measurement": "inhibition of VN-induced translocation of Stat1", "setting": "Stat1; peptide 1 pM with VN 1 μg/ml", "value": "inhibited"}, {"measurement": "cell migration in the presence of VN", "setting": "HEK-293-uPAR cells", "value": "108.18 ± 13.90 % of control"}, {"measurement": "cell migration", "setting": "HEK-293-uPAR cells", "value": "108.72 ± 17.37 % of control"}, {"measurement": "inhibition of vitronectin (VN)-induced chemotaxis of KG-1 cells", "setting": "KG-1 cells", "value": "inhibited"}]}
{"sequence": "IQEGEEGRPKDDR [D2A]", "values": [{"measurement": "maximal increase of migration", "setting": "LB6-D1HD3 cells; LB6-D1HD3 cells, at 10 pM, peptide per se", "value": 2, "unit": "fold"}, {"measurement": "effect on response to VN of non-responsive LB6-D1HD3 cells", "setting": "LB6-D1HD3 cells; with VN 1 μg/ml", "value": "restored the response to VN"}, {"measurement": "cell migration in the presence of VN", "setting": "HEK-293 cells", "value": "190.23 ± 35.24 % of control"}, {"measurement": "cell migration", "setting": "HEK-293 cells", "value": "106.98 ± 11.78 % of control"}, {"measurement": "reduction of coimmunoprecipitated suPAR compared to uPA alone", "setting": "uPAR-αvβ3 complexes; uPA plus peptide, αvβ3", "value": "approximately 50%"}, {"measurement": "effect on uPA-induced co-immunoprecipitation of suPAR and α5β1", "setting": "uPAR-α5β1 complexes", "value": "can also prevent"}, {"measurement": "cell morphology and actin cytoskeleton organization", "setting": "RSMC", "value": "a complete change of morphology and cytoskeleton organization occurred"}, {"measurement": "stimulation of RSMC migration (chemotactic activity)", "setting": "[4]; RSMC", "value": "equally active in stimulating migration"}, {"measurement": "additivity of chemotactic effects with VN", "setting": "[4]; RSMC, D2A 1 pM combined with VN 1 μg/ml", "value": "did not further increase cell migration"}, {"measurement": "concentration of peak stimulation of Matrigel invasiveness", "setting": "[5]; HT1080, dose-dependent", "value": "around 1 pM"}, {"measurement": "stimulation of Matrigel invasiveness of HT1080 cells", "setting": "[5]", "value": "stimulate"}, {"measurement": "Stat1 activation and translocation into the nucleus", "setting": "Stat1", "value": "induced its translocation into the nucleus"}, {"measurement": "cell migration in the presence of VN", "setting": "HEK-293-uPAR cells", "value": "400.88 ± 17.41 % of control"}, {"measurement": "cell migration", "setting": "HEK-293-uPAR cells", "value": "325.48 ± 14.42 % of control"}, {"measurement": "chemotaxis of KG-1 cells", "setting": "KG-1 cells; peptide as chemoattractant, 1 hour at 37° C.", "value": "stimulated migration"}]}
